Measured values taken from patent US20040181130A1, “Methods for diagnosing skin lesions” (3M Innovative Properties Company, priority 2003, published 2004).

Test system: AK lesions
Experiment: Increase in AK lesion count during 16-week topical treatment of volunteers with AK lesions
Assay type: in vivo, human
Source text: Volunteers having from four to eight clinically diagnosed AK lesions located within a 25 cm^2 treatment area were enrolled in a study. The study consisted of a prestudy period, a 16-week treatment period, and an 8-week post treatment period. Enrolled participants were randomized to receive either 5% imiquimod cream (ALDARA, 3M Pharmaceuticals, St. Paul, Minn.) or placebo cream containing no biologically active ingredient.
Subjects were instructed to topically administer cream from a single-use sachet. Sachets that contained imiquimod contained 250 mg of cream. One group of subjects applied cream two days per week for sixteen weeks, with dosing days occurring a minimum of three days apart. A second group of subjects applied cream three days per week for sixteen weeks, with dosing days occurring at least two days apart.
At a pretreatment visit, a baseline AK lesion count was established for each subject. Updated AK lesion counts were calculated at visits after four weeks, eight weeks, and sixteen weeks of treatment. For each individual, “new” AK lesions were calculated as the difference between the updated AK count and the baseline AK count. Thus, subclinical AK lesions may become apparent after treatment with ALDARA cream.

[1] = 5% cream topical 2x/week, Any visit, N=215
[2] = 5% cream topical 2x/week, Week 4, N=215
[3] = 5% cream topical 2x/week, Week 8, N=215
[4] = 5% cream topical 2x/week, Week 16, N=215
[5] = 5% cream topical 3x/week, Any visit, N=242
[6] = 5% cream topical 3x/week, Week 4, N=242
[7] = 5% cream topical 3x/week, Week 8, N=242
[8] = 5% cream topical 3x/week, Week 16, N=242

In the case of CC(C)Cn1cnc2c(N)nc3ccccc3c21 [Imiquimod, imiquimod], the “% of Subjects with an Increase in AK Lesion Count” value (“% of Subjects with an Increase” for short) [1] is reported as 47.9%, the “Number of Subjects with an Increase in AK Lesion Count” value (“Number of Subjects with an Increase” for short) [1] is reported as 103 and the “% of Subjects with an Increase” value [2] is reported as 36.7%. For the same compound, the “Number of Subjects with an Increase” value [2] was 79, the “% of Subjects with an Increase” value [3] was 28.4% and the “Number of Subjects with an Increase” value [3] was 61. The “% of Subjects with an Increase” value [4] was 9.3%, the “Number of Subjects with an Increase” value [4] was 20 and the “% of Subjects with an Increase” value [5] was 42.6%. For the same compound, the “Number of Subjects with an Increase” value [5] was 103, the “% of Subjects with an Increase” value [6] was 33.1% and the “Number of Subjects with an Increase” value [6] was 80. The “% of Subjects with an Increase” value [7] was 16.5%, the “Number of Subjects with an Increase” value [7] was 40 and the “% of Subjects with an Increase” value [8] was 6.2%. The “Number of Subjects with an Increase” value [8] was 15.
